ChEMBL document CHEMBL1131686, “Synthesis and biological activities of topoisomerase I inhibitors, 6-N-amino analogues of NB-506” (Bioorg Med Chem Lett, 1999)

Experiments:
DNA topoisomerase 1 = target: T1, DNA topoisomerase 1 (Homo sapiens, UniProt P11387); experiment: In vitro activity against topoisomerase-1 mediated cleavage of supercoiled pBR322 plasmid DNA; type: functional
T1 sequence (P11387 whole entry): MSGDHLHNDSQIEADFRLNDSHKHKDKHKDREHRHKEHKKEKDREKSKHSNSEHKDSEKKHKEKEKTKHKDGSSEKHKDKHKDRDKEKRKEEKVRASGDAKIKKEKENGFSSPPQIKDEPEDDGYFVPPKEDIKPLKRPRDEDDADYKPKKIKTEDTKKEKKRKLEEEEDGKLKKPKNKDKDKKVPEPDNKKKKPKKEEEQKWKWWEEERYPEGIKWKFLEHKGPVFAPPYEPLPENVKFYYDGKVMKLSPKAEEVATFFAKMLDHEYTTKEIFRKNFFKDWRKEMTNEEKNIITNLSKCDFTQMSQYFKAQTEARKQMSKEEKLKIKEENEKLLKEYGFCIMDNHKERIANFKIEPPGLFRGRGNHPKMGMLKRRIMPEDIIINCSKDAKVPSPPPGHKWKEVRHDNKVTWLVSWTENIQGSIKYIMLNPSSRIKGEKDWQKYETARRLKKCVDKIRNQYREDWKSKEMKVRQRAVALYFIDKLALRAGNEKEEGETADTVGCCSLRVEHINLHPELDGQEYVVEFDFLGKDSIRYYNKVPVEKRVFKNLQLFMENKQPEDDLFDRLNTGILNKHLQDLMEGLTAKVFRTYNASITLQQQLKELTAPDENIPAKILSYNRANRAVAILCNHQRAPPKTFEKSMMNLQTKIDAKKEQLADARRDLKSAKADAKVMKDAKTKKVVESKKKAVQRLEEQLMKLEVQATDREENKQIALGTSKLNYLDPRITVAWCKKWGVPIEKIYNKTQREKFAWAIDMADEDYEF

DNA topoisomerase II = DNA topoisomerase II (Homo sapiens, UniProt P11388+Q02880); experiment: In vitro activity against topoisomerase-2 mediated cleavage of supercoiled pBR322 plasmid DNA; type: functional
[1] = target: Epidermal growth factor receptor (Homo sapiens, UniProt P00533); experiment: In vitro activity against Epidermal growth factor receptor (using poly(Glu4Tyr1) as a substrate)
Chain of Epidermal growth factor receptor (P00533 whole entry): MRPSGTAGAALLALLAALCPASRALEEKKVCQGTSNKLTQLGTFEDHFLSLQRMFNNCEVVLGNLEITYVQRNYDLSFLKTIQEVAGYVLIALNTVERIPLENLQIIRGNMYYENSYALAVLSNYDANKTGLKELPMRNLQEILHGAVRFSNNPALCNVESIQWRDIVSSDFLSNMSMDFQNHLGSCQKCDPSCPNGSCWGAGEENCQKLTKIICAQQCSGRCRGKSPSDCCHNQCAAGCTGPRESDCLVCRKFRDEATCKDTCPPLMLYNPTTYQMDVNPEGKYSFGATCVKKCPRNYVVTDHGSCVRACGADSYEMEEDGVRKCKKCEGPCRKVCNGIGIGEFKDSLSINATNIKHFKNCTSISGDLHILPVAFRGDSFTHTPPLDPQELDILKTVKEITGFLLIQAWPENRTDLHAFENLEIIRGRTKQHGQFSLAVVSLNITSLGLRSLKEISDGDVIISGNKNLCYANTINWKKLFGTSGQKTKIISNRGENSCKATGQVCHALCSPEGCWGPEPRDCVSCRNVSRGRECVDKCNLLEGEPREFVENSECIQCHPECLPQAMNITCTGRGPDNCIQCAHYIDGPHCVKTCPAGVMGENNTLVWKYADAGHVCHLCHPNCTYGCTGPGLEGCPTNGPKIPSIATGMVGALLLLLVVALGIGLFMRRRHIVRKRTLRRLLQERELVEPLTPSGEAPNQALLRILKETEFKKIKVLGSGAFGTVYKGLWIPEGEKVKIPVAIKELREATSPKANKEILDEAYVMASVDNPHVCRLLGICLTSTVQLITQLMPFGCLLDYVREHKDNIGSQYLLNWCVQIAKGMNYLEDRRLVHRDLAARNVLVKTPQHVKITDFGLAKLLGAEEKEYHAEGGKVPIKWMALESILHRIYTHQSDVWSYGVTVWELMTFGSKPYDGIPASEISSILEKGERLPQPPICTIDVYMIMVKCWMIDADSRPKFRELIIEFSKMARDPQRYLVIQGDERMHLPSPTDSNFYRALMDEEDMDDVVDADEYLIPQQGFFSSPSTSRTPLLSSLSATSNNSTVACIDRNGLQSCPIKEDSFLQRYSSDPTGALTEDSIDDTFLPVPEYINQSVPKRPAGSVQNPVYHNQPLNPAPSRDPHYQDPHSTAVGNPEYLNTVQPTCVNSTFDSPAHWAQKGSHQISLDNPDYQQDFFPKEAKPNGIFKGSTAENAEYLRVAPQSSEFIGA

P388 [2] = experiment: Effect on the formation of protein-DNA complex in P388 cells K+/SDS method; type: functional, Mus musculus
[3] = target: Protein kinase C alpha type (Homo sapiens, UniProt P17252); experiment: In vitro activity evaluated against protein kinase C (using histone II-As as a substrate)
MKN-45 [4] = experiment: In vitro cytotoxicity (CTX) against human stomach cancer cells (MKN-45) using sulforhodamine B dye-staining method; type: functional, cell-based
P388 [5] = experiment: In vitro cytotoxicity (CTX) against murine leukemia cells (P388) using colorimetric tetrazolium-formazan method; type: functional, cell-based; settings: Mus musculus
[6] = Lethal dose after intravenous administration (5 times/week for 2 weeks after tumor grew to 0.2 cme3 or larger) in mice; type: toxicity; settings: mouse, in vivo, 336 h
MKN-45 [7] = experiment: Cytotoxicity against human stomach cancer cells (MKN-45) after intravenous administration (5 times/week for 2 weeks after tumor grew to 0.2 cme3 or larger); type: functional, cell-based; settings: MKN-45, 336 h
Mus musculus = experiment: Cytotoxicity against human stomach cancer cells (MKN-45) implanted subcutaneously into a side flank of nude mice; type: functional, Cancer cell lines
[8] = Ratio of LD10 to that of GID75 was determined; expressed as safety margin; type: functional

Row | EC50 (DNA topoisomerase 1) | EC50 (DNA topoisomerase II) | IC50 [1] | IC50 [3] | SMILES | EC200 (P388 [2]) | IC50 (MKN-45 [4]) | IC50 (P388 [5]) | LD10 [6] | IC50 (MKN-45 [7]) | GID75 (Mus musculus) | Activity [8]
1 | 1000 nM | > 50000 nM | > 200000 nM | 130000 nM | CC(=O)NN1C(=O)c2c(c3c4cccc(O)c4n(C4OC(CO)C(O)C(O)C4O)c3c3[nH]c4c(O)cccc4c23)C1=O (stereo not drawn) | 2 µM | 260 nM | 150 nM | – | – | – | –
2 | 270 nM | > 50000 nM | > 200000 nM | 12000 nM | Cc1ccc(S(=O)(=O)NN2C(=O)c3c(c4c5cccc(O)c5n(C5OC(CO)C(O)C(O)C5O)c4c4[nH]c5c(O)cccc5c34)C2=O)cc1 (stereo not drawn) | >10 µM | – | – | – | – | – | –
3 | 580 nM | > 50000 nM | > 200000 nM | > 200000 nM | CS(=O)(=O)NN1C(=O)c2c(c3c4cccc(O)c4n(C4OC(CO)C(O)C(O)C4O)c3c3[nH]c4c(O)cccc4c23)C1=O (stereo not drawn) | >10 µM | 270 nM | 60 nM | – | – | – | –
4 | 270 nM | > 50000 nM | > 200000 nM | > 200000 nM | NN1C(=O)c2c(c3c4cccc(O)c4n(C4OC(CO)C(O)C(O)C4O)c3c3[nH]c4c(O)cccc4c23)C1=O (stereo not drawn) | 0.5 µM | 130 nM | 40 nM | – | – | – | –
5 | 170 nM | – | > 200000 nM | > 200000 nM | CN(C)CC(=O)NN1C(=O)c2c(c3c4cccc(O)c4n(C4OC(CO)C(O)C(O)C4O)c3c3[nH]c4c(O)cccc4c23)C1=O (stereo not drawn) | >10 µM | 460 nM | 260 nM | – | – | – | –
6 | > 3000 nM | > 50000 nM | 29000 nM | 40000 nM | O=C1NC(=O)c2c1c1c3cccc(O)c3[nH]c1c1[nH]c3c(O)cccc3c21 | 3 µM | – | 2000 nM | – | – | – | –
7 | 52 nM | – | > 200000 nM | 35000 nM | O=C(NN1C(=O)c2c(c3c4cccc(O)c4n(C4OC(CO)C(O)C(O)C4O)c3c3[nH]c4c(O)cccc4c23)C1=O)c1ccccc1 (stereo not drawn) | 10 µM | 48 nM | 12 nM | – | – | – | –
8 | 360 nM | > 50000 nM | > 200000 nM | > 200000 nM | NC(=O)NN1C(=O)c2c(c3c4cccc(O)c4n(C4OC(CO)C(O)C(O)C4O)c3c3[nH]c4c(O)cccc4c23)C1=O (stereo not drawn) | 2.8 µM | 270 nM | 35 nM | – | – | – | –
9 | 250 nM | – | 95000 nM | 6800 nM | O=C(Nc1ccccc1)NN1C(=O)c2c(c3c4cccc(O)c4n(C4OC(CO)C(O)C(O)C4O)c3c3[nH]c4c(O)cccc4c23)C1=O (stereo not drawn) | >10 µM | 250 nM | 250 nM | – | – | – | –
10 | 550 nM | > 50000 nM | > 200000 nM | 65000 nM | N#CCC(=O)NN1C(=O)c2c(c3c4cccc(O)c4n(C4OC(CO)C(O)C(O)C4O)c3c3[nH]c4c(O)cccc4c23)C1=O (stereo not drawn) | 20 µM | 1900 nM | 490 nM | – | – | – | –
11 | 90 nM | > 50000 nM | > 200000 nM | 41000 nM | O=C(NN1C(=O)c2c(c3c4cccc(O)c4n(C4OC(CO)C(O)C(O)C4O)c3c3[nH]c4c(O)cccc4c23)C1=O)c1ccccn1 (stereo not drawn) | >10 µM | 2500 nM | 470 nM | – | – | – | –
12 | 480 nM | > 50000 nM | > 200000 nM | 36000 nM | CCC(=O)NN1C(=O)c2c(c3c4cccc(O)c4n(C4OC(CO)C(O)C(O)C4O)c3c3[nH]c4c(O)cccc4c23)C1=O (stereo not drawn) | 6 µM | 190 nM | 45 nM | – | – | – | –
13 | 350 nM | > 50000 nM | 100000 nM | 55000 nM | CNN1C(=O)c2c(c3c4cccc(O)c4n(C4OC(CO)C(O)C(O)C4O)c3c3[nH]c4c(O)cccc4c23)C1=O (stereo not drawn) | 2.5 µM | 130 nM | 75 nM | – | – | – | –
14 | 1200 nM | > 50000 nM | 59000 nM | 65000 nM | CCCNN1C(=O)c2c(c3c4cccc(O)c4n(C4OC(CO)C(O)C(O)C4O)c3c3[nH]c4c(O)cccc4c23)C1=O (stereo not drawn) | 6.3 µM | 210 nM | 55 nM | – | – | – | –
15 | 9500 nM | > 50000 nM | > 200000 nM | 110000 nM | O=C(O)CNN1C(=O)c2c(c3c4cccc(O)c4n(C4OC(CO)C(O)C(O)C4O)c3c3[nH]c4c(O)cccc4c23)C1=O (stereo not drawn) | >10 µM | 2900 nM | 800 nM | – | – | – | –
16 | 300 nM | > 50000 nM | > 200000 nM | 13000 nM | O=C1c2c(c3c4cccc(O)c4n(C4OC(CO)C(O)C(O)C4O)c3c3[nH]c4c(O)cccc4c23)C(=O)N1NCc1cccc(O)c1 (stereo not drawn) | 0.26 µM | 12 nM | 7 nM | – | – | – | –
17 | 160 nM | > 50000 nM | 90000 nM | 23000 nM | O=C(O)c1ccc(NN2C(=O)c3c(c4c5cccc(O)c5n(C5OC(CO)C(O)C(O)C5O)c4c4[nH]c5c(O)cccc5c34)C2=O)cc1 (stereo not drawn) | >50 µM | > 10000 nM | 6500 nM | – | – | – | –
18 | 3000 nM | > 50000 nM | 90000 nM | 3800 nM | O=C1NC(=O)c2c1c1c3cccc(O)c3[nH]c1c1c2c2cccc(O)c2n1C1OC(CO)C(O)C(O)C1O (stereo not drawn) | 2 µM | 540 nM | 44 nM | – | – | – | –
19 | > 10000 nM | > 50000 nM | > 200000 nM | 59000 nM | CN(C)N1C(=O)c2c(c3c4cccc(O)c4n(C4OC(CO)C(O)C(O)C4O)c3c3[nH]c4c(O)cccc4c23)C1=O (stereo not drawn) | >10 µM | > 10000 nM | 1600 nM | – | – | – | –

Row | SMILES | EC50 (DNA topoisomerase 1) | EC50 (DNA topoisomerase II) | IC50 [1] | IC50 [3] | EC200 (P388 [2]) | IC50 (MKN-45 [4]) | IC50 (P388 [5]) | LD10 [6] | IC50 (MKN-45 [7]) | GID75 (Mus musculus) | Activity [8]
20 | O=CNN1C(=O)c2c(c3c4cccc(O)c4n(C4OC(CO)C(O)C(O)C4O)c3c3[nH]c4c(O)cccc4c23)C1=O (stereo not drawn) | 700 nM | > 50000 nM | > 200000 nM | > 200000 nM | 1.4 µM | 310 nM | 75 nM | 1600 mg/me2 | 310 nM | 1152 mg/me2 | 1.4 Ratio
21 | O=C1c2c(c3c4cccc(O)c4n(C4OC(CO)C(O)C(O)C4O)c3c3[nH]c4c(O)cccc4c23)C(=O)N1NCC(O)CO (stereo not drawn) | 1000 nM | – | 180000 nM | > 200000 nM | 0.7 µM | 79 nM | 29 nM | 330 mg/me2 | 79 nM | 290 mg/me2 | 1.1 Ratio
22 | O=C1c2c(c3c4cccc(O)c4n(C4OC(CO)C(O)C(O)C4O)c3c3[nH]c4c(O)cccc4c23)C(=O)N1NC(CO)CO (stereo not drawn) | 580 nM | > 50000 nM | – | > 200000 nM | 0.45 µM | 130 nM | 17 nM | 390 mg/me2 | 130 nM | 78 mg/me2 | 5 Ratio
23 | CCNN1C(=O)c2c(c3c4cccc(O)c4n(C4OC(CO)C(O)C(O)C4O)c3c3[nH]c4c(O)cccc4c23)C1=O (stereo not drawn) | 3500 nM | > 50000 nM | > 200000 nM | > 200000 nM | 1.2 µM | 59 nM | 18 nM | > 1500 mg/me2 | 59 nM | >1500 mg/me2 | –
